Test results: patent publication US7524880B2, “Crystalline form of a substituted pyrrolidine compound” (Theravance, Inc., priority 2004, dated 2009)

Target: T1, hM2 receptor (Homo sapiens, UniProt P08172)
T1 construct: expressed in transfected cells; host or cells: CHO-K1 cells
T1 sequence (P08172 1-466): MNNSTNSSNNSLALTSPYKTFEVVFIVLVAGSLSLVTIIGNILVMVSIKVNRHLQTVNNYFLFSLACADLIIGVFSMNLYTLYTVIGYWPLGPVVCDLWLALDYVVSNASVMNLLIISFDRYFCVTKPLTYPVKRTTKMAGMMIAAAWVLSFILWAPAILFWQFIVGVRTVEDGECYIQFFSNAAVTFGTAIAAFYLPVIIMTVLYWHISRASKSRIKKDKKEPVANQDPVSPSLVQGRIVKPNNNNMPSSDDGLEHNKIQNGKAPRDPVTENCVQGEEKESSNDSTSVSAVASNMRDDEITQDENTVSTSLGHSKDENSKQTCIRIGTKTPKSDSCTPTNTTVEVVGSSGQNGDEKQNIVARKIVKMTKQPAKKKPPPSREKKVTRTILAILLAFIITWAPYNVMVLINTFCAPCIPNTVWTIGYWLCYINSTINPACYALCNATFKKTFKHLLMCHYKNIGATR
Assay: Blockade of agonist-mediated inhibition of cAMP accumulation
Type: cell-based
Conditions: CHO-K1 cells expressing the hM2 receptor; read-out: Ki value for blockade of oxotremorine-inhibition of forskolin-mediated cAMP accumulation
Description: A. Blockade of Agonist-Mediated Inhibition of cAMP Accumulation
In this assay, the functional potency of a test compound was determined by measuring the ability of the test compound to block oxotremorine-inhibition of forskolin-mediated cAMP accumulation in CHO-K1 cells expressing the hM2 receptor.
cAMP assays were performed in a radioimmunoassay format using the Flashplate Adenylyl Cyclase Activation Assay System with ^125I-cAMP (NEN SMP004B, PerkinElmer Life Sciences Inc., Boston, Mass.), according to the manufacturer's instructions.
Cells were rinsed once with dPBS and lifted with Trypsin-EDTA solution (0.05% trypsin/0.53 mM EDTA) as described in the Cell Culture and Membrane Preparation section above. […] The cell pellet was then re-suspended in 10 mL dPBS, and the cells were counted with a Coulter Z1 Dual Particle Counter (Beckman Coulter, Fullerton, Calif.). […]
Reactions were incubated for 10 minutes at 37° C. and stopped by addition of 100 μL ice-cold detection buffer. Plates were sealed, incubated overnight at room temperature and counted the next morning on a PerkinElmer TopCount liquid scintillation counter (PerkinElmer Inc., Wellesley, Mass.). The amount of cAMP produced (pmol/well) was calculated based on the counts observed for the samples and cAMP standards, as described in the manufacturer's user manual. […]

Question: For `CNCCCCCCCCN1CC[C@@H](C(C(N)=O)(c2ccccc2)c2ccccc2)C1` [compound of formula I, 2-[(S)-1-(8-methylaminooctyl)pyrrolidin-3-yl]-2,2-diphenylacetamide], which Ki is on record?
Answer: < 5 nM
